What was measured:
Assay type in all cases: in vivo
[1] = tested on: large crabgrass (Digitaria sanguinalis, DIGSA); experiment: Post-emerge greenhouse herbicide test, phytotoxicity rating; details: 14 days after application
Method in brief: (§1)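 Scores use a 0 (no damage) to 100 (complete kill) scale, taken 14 days after a foliar spray. Acetone solutions with 0.25% v/v non-ionic surfactant were applied by track sprayer at 187 l/ha and 63-1000 g ai/ha to bottom-watered 2-3 leaf plants.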

[2] = tested on: redroot pigweed (Amaranthus retroflexus, AMARE); experiment: as above; details: 14 days after application
Method in brief: as §1

[3] = tested on: barnyardgrass (Echinochloa crusgalli, ECHCG); experiment: as above; details: 14 days after application
Method in brief: as §1

[4] = tested on: ivyleaf morningglory (Ipomoea hederacea, IPOHE); experiment: as above; details: 14 days after application
Method in brief: as §1

[5] = tested on: Johnsongrass (Sorghum halepense, SORHA); experiment: as above; details: 14 days after application
Method in brief: as §1

[6] = tested on: green foxtail (Setaria viridis, SETVI); experiment: as above; details: 14 days after application
Method in brief: as §1

[7] = tested on: sicklepod (Cassia obtusifolia, CASOB); experiment: as above; details: 14 days after application
Method in brief: as §1

[8] = tested on: lambsquarters (Chenopodium album, CHEAL); experiment: as above; details: 14 days after application
Method in brief: as §1

[9] = tested on: velvetleaf (Abutilon theophrasti, ABUTH); experiment: as above; details: 14 days after application
Method in brief: as §1

[10] = tested on: common ragweed (Ambrosia artemisiifolia L., AMBEL); experiment: as above; details: 14 days after application
Method in brief: as §1

[11] = tested on: upland rice (Oryza sp., var.Tebonnet, RICE); experiment: Pre-emerge greenhouse test, crop damage rating; details: 14 days after application, rating scale 0-100
Method in brief: (§2)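 Visual 0–100 injury rating (100 = all plants dead) taken 14 days after treatment. Rates of 125–1000 g ai/ha in acetone, 187 l/ha, were sprayed onto soil one day post-sowing; pots were surface-watered to incorporate, then bottom-watered.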

[12] = tested on: field corn (Zea mays L., var. Dekalb 535, CORN); experiment: Pre-emerge greenhouse test, crop damage rating; details: 14 days after application, rating scale 0-100
Method in brief: as §2

[13] = tested on: large crabgrass (Digitaria sanguinalis, DIGSA); experiment: Pre-emerge greenhouse herbicide test, phytotoxicity rating; details: 14 days after application, rating scale 0-100
Method in brief: as §2

[14] = tested on: redroot pigweed (Amaranthus retroflexus, AMARE); experiment: as above; details: 14 days after application, rating scale 0-100
Method in brief: as §2

[15] = tested on: barnyardgrass (Echinochloa crusgalli, ECHCG); experiment: as above; details: 14 days after application, rating scale 0-100
Method in brief: as §2

[16] = tested on: ivyleaf morningglory (Ipomoea hederacea, IPOHE); experiment: as above; details: 14 days after application, rating scale 0-100
Method in brief: as §2

[17] = tested on: Johnsongrass (Sorghum halepense, SORHA); experiment: as above; details: 14 days after application, rating scale 0-100
Method in brief: as §2

[18] = tested on: green foxtail (Setaria viridis, SETVI); experiment: as above; details: 14 days after application, rating scale 0-100
Method in brief: as §2

[19] = tested on: sicklepod (Cassia obtusifolia, CASOB); experiment: as above; details: 14 days after application, rating scale 0-100
Method in brief: as §2

[20] = tested on: common ragweed (Ambrosia artemisiifolia L., AMBEL); experiment: as above; details: 14 days after application, rating scale 0-100
Method in brief: as §2

[21] = tested on: lambsquarters (Chenopodium album, CHEAL); experiment: as above; details: 14 days after application, rating scale 0-100
Method in brief: as §2

[22] = tested on: velvetleaf (Abutilon theophrasti, ABUTH); experiment: as above; details: 14 days after application, rating scale 0-100
Method in brief: as §2

[23] = tested on: soybean (Glycine max L., var. Pella 86, SOY); experiment: Post-emerge greenhouse test, crop damage rating; details: 14 days after application
Method in brief: as §1

[24] = tested on: upland rice (Oryza sp., var.Tebonnet, RICE); experiment: Post-emerge greenhouse test, crop damage rating; details: 14 days after application
Method in brief: as §1

[25] = tested on: field corn (Zea mays L., var. Dekalb 535, CORN); experiment: Post-emerge greenhouse test, crop damage rating; details: 14 days after application
Method in brief: as §1

[26] = tested on: soybean (Glycine max L., var. Pella 86, SOY); experiment: Pre-emerge greenhouse test, crop damage rating; details: 14 days after application, rating scale 0-100
Method in brief: as §2

Structure (SMILES): O=c1n(-c2cc(Oc3ccc([N+](=O)[O-])cc3C(F)(F)F)c(Cl)cc2F)c(=S)n2n1CCCC2 [Compound 8-14]
- DIGSA phytotoxicity rating (0-100) ([1]; 63 g al/ha): 0
- DIGSA phytotoxicity rating (0-100) ([1]; 500 g al/ha): 0
- AMARE phytotoxicity rating (0-100) ([2]; 63 g al/ha): 70
- AMARE phytotoxicity rating (0-100) ([2]; 500 g al/ha): 90
- ECHCG phytotoxicity rating (0-100) ([3]; 63 g al/ha): 0
- ECHCG phytotoxicity rating (0-100) ([3]; 500 g al/ha): 0
- IPOHE phytotoxicity rating (0-100) ([4]; 63 g al/ha): 80
- IPOHE phytotoxicity rating (0-100) ([4]; 500 g al/ha): 85
- SORHA phytotoxicity rating (0-100) ([5]; 63 g al/ha): 0
- SORHA phytotoxicity rating (0-100) ([5]; 500 g al/ha): 0
- SETVI phytotoxicity rating (0-100) ([6]; 63 g al/ha): 30
- SETVI phytotoxicity rating (0-100) ([6]; 500 g al/ha): 20
- CASOB phytotoxicity rating (0-100) ([7]; 63 g al/ha): 40
- CASOB phytotoxicity rating (0-100) ([7]; 500 g al/ha): 30
- CHEAL phytotoxicity rating (0-100) ([8]; 63 g al/ha): 80
- CHEAL phytotoxicity rating (0-100) ([8]; 500 g al/ha): 90
- ABUTH phytotoxicity rating (0-100) ([9]; 63 g al/ha): 95
- ABUTH phytotoxicity rating (0-100) ([9]; 500 g al/ha): 95
- AMBEL phytotoxicity rating (0-100) ([10]; 63 g al/ha): 40
- AMBEL phytotoxicity rating (0-100) ([10]; 500 g al/ha): 60
- crop damage rating RICE ([11]; 125 g ai/ha): 0
- crop damage rating RICE ([11]; 500 g ai/ha): 0
- crop damage rating CORN ([12]; 125 g ai/ha): 0
- crop damage rating CORN ([12]; 500 g ai/ha): 0
- phytotoxicity rating DIGSA ([13]; 125 g ai/ha): 0
- phytotoxicity rating DIGSA ([13]; 500 g ai/ha): 20
- phytotoxicity rating AMARE ([14]; 125 g ai/ha): 70
- phytotoxicity rating AMARE ([14]; 500 g ai/ha): 95
- phytotoxicity rating ECHCG ([15]; 125 g ai/ha): 0
- phytotoxicity rating ECHCG ([15]; 500 g ai/ha): 0
- phytotoxicity rating IPOHE ([16]; 125 g ai/ha): 0
- phytotoxicity rating IPOHE ([16]; 500 g ai/ha): 0
- phytotoxicity rating SORHA ([17]; 125 g ai/ha): 0
- phytotoxicity rating SORHA ([17]; 500 g ai/ha): 0
- phytotoxicity rating SETVI ([18]; 125 g ai/ha): 0
- phytotoxicity rating SETVI ([18]; 500 g ai/ha): 50
- phytotoxicity rating CASOB ([19]; 125 g ai/ha): 0
- phytotoxicity rating CASOB ([19]; 500 g ai/ha): 0
- phytotoxicity rating AMBEL ([20]; 125 g ai/ha): 0
- phytotoxicity rating AMBEL ([20]; 500 g ai/ha): 30
- phytotoxicity rating CHEAL ([21]; 125 g ai/ha): 80
- phytotoxicity rating CHEAL ([21]; 500 g ai/ha): 100
- phytotoxicity rating ABUTH ([22]; 125 g ai/ha): 30
- phytotoxicity rating ABUTH ([22]; 500 g ai/ha): 60
- SOY crop damage rating (0-100) ([23]; 63 g al/ha): 30
- SOY crop damage rating (0-100) ([23]; 500 g al/ha): 30
- RICE crop damage rating (0-100) ([24]; 63 g al/ha): 0
- RICE crop damage rating (0-100) ([24]; 500 g al/ha): 0
- CORN crop damage rating (0-100) ([25]; 63 g al/ha): 5
- CORN crop damage rating (0-100) ([25]; 500 g al/ha): 5
- crop damage rating SOY ([26]; 125 g ai/ha): 0
- crop damage rating SOY ([26]; 500 g ai/ha): 0

Source: patent publication US6479435B1, “Diaryl ethers and processes for their preparation and herbicidal and desiccant compositions containing them” (ISK Americas Incorporated, priority 1997, dated 2002)
